The source of these data is paper PMC6268628, “Steroidal and Phenolic Glycosides from the Bulbs of Lilium pumilum DC and Their Potential Na^+/K^+ ATPase Inhibitory Activity” (Molecules, 2012).

The test concerns the target T1, Ouabain sensitive dog kidney Na^+/K^+ ATPase (Canis lupus familiaris, UniProt P50997).
T1 construct: Ouabain sensitive dog kidney Na^+/K^+ ATPase was obtained from Sigma (Shanghai, China); purchased Sigma (Shanghai, China); host or cells: dog kidney (tissue-derived enzyme preparation)
In words: Assay of Na+/K+ ATPase activity (released inorganic phosphate, absorbance at 660 nm). It counts as biochemical. The procedure: Specific rotation measurements were recorded on a Perkin-Elmer 242 MC polarimeter. UV spectra were recorded on a Hewlett-Packard HP-845 UV-VIS spectrophotometer. IR spectra were recorded on a Nicolet 470 spectrometer and MS on a Varian MAT-212 mass spectrometer and a Shimadzu GC-MS model QP2010 Plus spectrophotometer, respectively. NMR spectra were recorded on a Bruker AM-400 spectrameter (400 MHz for ^1H-NMR) or a Bruker DRX-500 (500 MHz for ^1H-NMR) spectrameter using standard Bruker pulse programs. Chemical shifts are given as δ values with reference to tetramethylsilane (TMS) as internal standard. Column chromatography separations were carried out on silica gel (200–300 mesh, Qingdao Haiyang Chemical Co. Ltd, Qingdao, China), ODS (50 mesh, AA12S50, YMC), Diaion HP-20 (Pharmacia, Peapack, NJ, USA) and Sephadex LH-20 (Pharmacia, Peapack, NJ, USA). Ouabain sensitive dog kidney Na^+/K^+ ATPase was obtained from Sigma (Shanghai, China). All other chemicals used were of biochemical reagent grade.
The Na^+/K^+ ATPase activity was assayed according to the reported method with some modification. […] The released inorganic phosphate was determined by the following method. […] After 25 min, the absorbance at 660 nm was recorded.

Molecules are shown by their SMILES. Like-named read-outs stand apart in the source and are kept apart here.

Take `CC1CCC2(OC1)OC1CC3C4CC(=O)C5CC(OC6OC(CO)C(O)C(O)C6OC6OC(C)C(O)C(O)C6O)CCC5(C)C4CCC3(C)C1C2C` [Compound 3, (25R)-3β-hydroxyl-5α-spirostan-6-one 3-O-α-L-rhamnopyranosyl-(1→2)-β-D-glucopyranoside]: where the note is “0.02 units enzyme, 3 mM ATP, pH 7.3, 37 °C, 20 min, 5% DMSO, read-out: IC50, inhibitory activity on Na^+/K^+ ATPase”, the IC50 came to 73 µM.

In the case of `C[C@@H]1O[C@@H](O[C@H]2C[C@@H](O)[C@]3(CO)[C@H]4[C@H](O)C[C@]5(C)[C@@H](C6=CC(=O)OC6)CC[C@]5(O)[C@@H]4CC[C@]3(O)C2)[C@H](O)[C@H](O)[C@H]1O` [Ouabain, reference compound], the IC50 stood at 1 µM.
